Test results reported in US3984393A, “Aminoglycoside antibiotics” (The Upjohn Company, priority 1975, dated 1976).
In brackets after ≈: the same amount, converted by molar mass.

Columns and labels:
[1] = test system: B. cereus; assay: standard disc plate assay, 12.5 mm paper discs (zone of inhibition), B. cereus; assay type: cell-based, Bacillus cereus; settings: conclusion in words from the above results
Text: (§1) The novel intermediates, disclosed herein, are useful to make novel aminoglycoside antibiotics. These novel aminoglycoside antibiotics are antibacterially active, and, thus, they can be used in various environments to eradicate or control sensitive bacteria. Following are in vitro antibacterial test results for representative compounds of the subject invention. The results were obtained with a standard disc plate assay using 12.5 mm paper discs.

[2] = test system: B. subtilis; assay: standard disc plate assay, 12.5 mm paper discs (zone of inhibition), B. subtilis; assay type: cell-based, Bacillus subtilis; settings: conclusion in words from the above results
Text: as §1

[3] = test system: S. aureus UC 76; assay: standard microplate test in BHI Agar (MIC), S. aureus UC 76; assay type: cell-based, Staphylococcus aureus
Procedure: (§2) Compounds were also tested in a standard microplate test in Brain Heart Infusion (BHI) Agar, at a concentration of 1 mg/ml. Incubation is at 37° and end points are read at 20 hours. Brain Heart Infusion Agar (supplied by Difco Laboratories, Detroit, Michigan, U.S.A.) has the following composition:
(§3) Compounds (7β), (7α) and (9) were tested again along with compounds (11) and (14β) against a neamine control using the same conditions as given above.

[4] = test system: S. hemolyticus UC 152; assay: standard microplate test in BHI Agar (MIC), S. hemolyticus UC 152; assay type: cell-based, Streptococcus hemolyticus; settings: Streptococcus pyogenes, UC152, 20 h; S. hemolyticus UC 152; retest table, group (7β), (14β), neamine control; read-out: Minimum Inhibitory Concentration
Procedure: as §2, §3

[5] = test system: St. faecalis UC 694; assay: standard microplate test in BHI Agar (MIC), St. faecalis UC 694; assay type: cell-based; settings: Enterococcus faecalis, UC694, 20 h, S. faecalis UC 694; retest table, group (7β), (14β), neamine control; read-out: Minimum Inhibitory Concentration
Procedure: as §2, §3

[6] = test system: E. coli UC 45; assay: standard microplate test in BHI Agar (MIC), E. coli UC 45; assay type: cell-based; settings: Escherichia coli, UC45, 20 h, E. coli UC 45; retest table, group (7β), (14β), neamine control; read-out: Minimum Inhibitory Concentration
Procedure: as §2, §3

[7] = test system: P. vulgaris UC 93; assay: standard microplate test in BHI Agar (MIC), P. vulgaris UC 93; assay type: cell-based; settings: Proteus vulgaris, UC93, 20 h, P. vulgaris UC 93; retest table, group (7β), (14β), neamine control; read-out: Minimum Inhibitory Concentration
Procedure: as §2, §3

[8] = test system: K. pneumoniae UC 58; assay: standard microplate test in BHI Agar (MIC), K. pneumoniae UC 58; assay type: cell-based; settings: Klebsiella pneumoniae, UC58, 20 h; K. pneumoniae UC 58; retest table, group (7β), (14β), neamine control; read-out: Minimum Inhibitory Concentration
Procedure: as §2, §3

[9] = test system: Ps. aeruginosa UC 95; assay: standard microplate test in BHI Agar (MIC), Ps. aeruginosa UC 95; assay type: cell-based; settings: Pseudomonas aeruginosa, UC95, 20 h, Ps. aeruginosa UC 95; retest table, group (7β), (14β), neamine control; read-out: Minimum Inhibitory Concentration
Procedure: as §2, §3

[10] = test system: D. pneumoniae UC 41; assay: standard microplate test in BHI Agar (MIC), D. pneumoniae UC 41; assay type: cell-based; settings: Streptococcus pneumoniae, UC41, 20 h, D. pneumoniae UC 41; retest table, group (7β), (14β), neamine control; read-out: Minimum Inhibitory Concentration
Procedure: as §2, §3

[11] = test system: P. mirabilis A-63; assay: standard microplate test in BHI Agar (MIC), P. mirabilis A-63; assay type: cell-based; settings: Proteus mirabilis, A63, 20 h; P. mirabilis A-63; retest table, group (7β), (14β), neamine control; read-out: Minimum Inhibitory Concentration
Procedure: as §2, §3

[12] = test system: P. morgani UC 3186; assay: standard microplate test in BHI Agar (MIC), P. morgani UC 3186; assay type: cell-based; settings: 20 h; P. morgani UC 3186; retest table, group (7β), (14β), neamine control; read-out: Minimum Inhibitory Concentration
Procedure: as §2, §3

[13] = test system: P. rettgeri UC 339; assay: standard microplate test in BHI Agar (MIC), P. rettgeri UC 339; assay type: cell-based; settings: Providencia rettgeri, UC339, 20 h; P. rettgeri UC 339; retest table, group (7β), (14β), neamine control; read-out: Minimum Inhibitory Concentration
Procedure: as §2, §3

[14] = test system: S. marcescens UC 131; assay: standard microplate test in BHI Agar (MIC), S. marcescens UC 131; assay type: cell-based; settings: Serratia marcescens, UC131, 20 h; S. marcescens UC 131; retest table, group (7β), (14β), neamine control; read-out: Minimum Inhibitory Concentration
Procedure: as §2, §3

[15] = test system: S. flexneri UC 143; assay: standard microplate test in BHI Agar (MIC), S. flexneri UC 143; assay type: cell-based; settings: Shigella flexneri, UC143, 20 h, retest table, group (7β), (14β), neamine control, read-out: Minimum Inhibitory Concentration
Procedure: as §2, §3

[16] = test system: S. typhi TG-3; assay: standard microplate test in BHI Agar (MIC), S. typhi TG-3; assay type: cell-based; settings: Salmonella enterica, 20 h, read-out: Minimum Inhibitory Concentration
Procedure: as §2, §3

[17] = test system: B. cereus UC 3145; assay: agar diffusion (standard agar disc plate) assay, B. cereus UC 3145; assay type: cell-based, Bacillus cereus; design: unit: mm
Procedure: as §1
(§4) Compound (14β) was also tested against a series of bacteria on a standard agar disc plate assay, as described above.

[18] = test system: B. subtilis UC 564; assay: agar diffusion (standard agar disc plate) assay, B. subtilis UC 564; assay type: cell-based, Bacillus subtilis; design: unit: mm
Procedure: as §1, §4

[19] = test system: S. aureus UC 76; assay: agar diffusion (standard agar disc plate) assay, S. aureus UC 76; assay type: cell-based, Staphylococcus aureus; design: unit not given here
Procedure: as §1, §4

[20] = test system: P. vulgaris UC 93; assay: agar diffusion (standard agar disc plate) assay, p. vulgaris UC 93; assay type: cell-based; design: unit: mm
Procedure: as §1, §4

[21] = test system: Ps. aeruginosa UC 95; assay: agar diffusion (standard agar disc plate) assay, Ps. aeruginosa UC 95; assay type: cell-based
Procedure: as §1, §4

[22] = test system: E. coli UC 51; assay: agar diffusion (standard agar disc plate) assay, E. coli UC 51; assay type: cell-based, Escherichia coli; design: unit not given here
Procedure: as §1, §4

[23] = test system: S. lutea UC 130; assay: agar diffusion (standard agar disc plate) assay, S. lutea UC 130; assay type: cell-based; design: unit: mm
Procedure: as §1, §4

[24] = test system: K. pneumoniae UC 57; assay: agar diffusion (standard agar disc plate) assay, K. pneumoniae UC 57; assay type: cell-based; design: unit: mm
Procedure: as §1, §4

NC[C@H]1O[C@H](O[C@H]2[C@H](O)[C@@H](O)[C@H](N)C[C@@H]2N)[C@H](N)[C@@H](O[C@@H]2O[C@H](CO)[C@@H](O)[C@H]2O)[C@@H]1O [Compound (14β), 3'-O-(β-D-Ribofuranosyl)neamine]
active against Bacillus cereus [1]: active
active against Bacillus subtilis [2]: active
MIC ([3]; Staphylococcus aureus, UC76, 20 h, S. aureus UC 76, retest table, group (7β), (14β), neamine control, read-out: Minimum Inhibitory Concentration): 1000 µg/mL (≈ 2200 µM)
active against Staphylococcus aureus ([3]; conclusion in words from the above results): active
MIC [4]: 1000 µg/mL (≈ 2200 µM)
MIC [5]: 1000 µg/mL (≈ 2200 µM)
MIC [6]: 1000 µg/mL (≈ 2200 µM)
MIC [7]: 1000 µg/mL (≈ 2200 µM)
MIC [8]: 500 µg/mL (≈ 1100 µM)
MIC [9]: 1000 µg/mL (≈ 2200 µM)
MIC [10]: 1000 µg/mL (≈ 2200 µM)
MIC [11]: 1000 µg/mL (≈ 2200 µM)
MIC [12]: 1000 µg/mL (≈ 2200 µM)
MIC [13]: 1000 µg/mL (≈ 2200 µM)
MIC [14]: 1000 µg/mL (≈ 2200 µM)
MIC [15]: 1000 µg/mL (≈ 2200 µM)
MIC [16]: 1000 µg/mL (≈ 2200 µM)
Agar Diffusion Assay ([17]; Full Strength): 25.5
Agar Diffusion Assay ([17]; dilution 1 : 2): 24
Agar Diffusion Assay ([17]; dilution 1 : 4): 21
Agar Diffusion Assay ([17]; dilution 1 : 8): 18
Agar Diffusion Assay ([18]; Full Strength): 37
Agar Diffusion Assay ([18]; dilution 1 : 2): 35.5
Agar Diffusion Assay ([18]; dilution 1 : 4): 33
Agar Diffusion Assay ([18]; dilution 1 : 8): 30.5
Agar Diffusion Assay ([19]; Full Strength): 25
Agar Diffusion Assay ([19]; dilution 1 : 2): 23
Agar Diffusion Assay ([19]; dilution 1 : 4): 21
Agar Diffusion Assay ([19]; dilution 1 : 8): 17.5
Agar Diffusion Assay ([20]; Full Strength): 26
Agar Diffusion Assay ([20]; dilution 1 : 2): 22
Agar Diffusion Assay ([20]; dilution 1 : 4): 19.5
Agar Diffusion Assay ([20]; dilution 1 : 8): 16
Agar Diffusion Assay ([21]; Full Strength): 20
Agar Diffusion Assay ([21]; dilution 1 : 2): 17
Agar Diffusion Assay ([21]; dilution 1 : 4): 14
Agar Diffusion Assay ([22]; Full Strength): 27
Agar Diffusion Assay ([22]; dilution 1 : 2): 24.5
Agar Diffusion Assay ([22]; dilution 1 : 4): 22
Agar Diffusion Assay ([22]; dilution 1 : 8): 18
Agar Diffusion Assay ([23]; Full strength): 25
Agar Diffusion Assay ([23]; dilution 1 : 2): 22.5
Agar Diffusion Assay ([23]; dilution 1 : 4): 19
Agar Diffusion Assay ([23]; dilution 1 : 8): 15
Agar Diffusion Assay ([24]; Full strength): 31
Agar Diffusion Assay ([24]; dilution 1 : 2): 29
Agar Diffusion Assay ([24]; dilution 1 : 4): 27
Agar Diffusion Assay ([24]; dilution 1 : 8): 23
